Active and inactive are the calls of the source. The calls are words filed in the database; no cut-off is given here.

Broadly, the LD50 is the dose at which mortality reaches 50%. Low readings indicate a more toxic substance, high ones a less toxic substance. Usually half-life stands for how long it takes for the measured level to halve. Lower therefore signals rapid decline.

The nature of series [1]: Lethal dose was determined in male Swiss-Webster mice by intravenous injection using up-and-down method. It is filed as toxicity, organism-based. The settings on record: mouse, in vivo.
Series [2] is described as follows: Rate constant (cyclization rate) in CD3CN-deuterated phosphate buffer at pH 7.4. It is filed as ADME.
In series [3] the test system is Mus musculus. As to the kind of experiment: Peripheral muscarinic effect was evaluated in mice by intravenous injection; No visible tremors or salivation observed. It is filed as functional, organism-based.
Series [4] is described as follows: Half life was determined. It is filed as ADME.

For `CN(CC#CCOC(=O)Nc1cccc(Cl)c1)CCBr`, in series [1], the LD50 was determined as 57.2 µmol/kg. The same molecule had a K1 in series [2] of 0.27 min⁻¹.
As for `C[N+](C)(C)CC#CCOC(=O)Nc1cccc(Cl)c1.[Cl-]`, the result in series [3] was inactive. This molecule came in with an LD50 in series [1] of 3.7 µmol/kg.
In series [1], `CN(CC#CCOC(=O)Nc1cccc(Cl)c1)CCCl` gave an LD50 of 166 µmol/kg. In series [2], this molecule came in with a K1 of 0.0089 min⁻¹ and a K2 of 0.099 min⁻¹. Further, the half-life in series [4] was 1.87 h.

The values are drawn from ChEMBL document CHEMBL1125124, “Tertiary 2-haloethylamine derivatives of the muscarinic agent McN-A-343, [4-[[N-(3-chlorophenyl)carbamoyl]oxy]-2-butynyl]trimethylammonium chloride” (J Med Chem, 1990).
